# Legend:
# [1] = system: cold allodynia induced by oxaliplatin; assay: Cold allodynia (acetone application), oxaliplatin animal model, oral cinnamic acid; type: in vivo, c57/bl6 mice
# Method: Six-week-old mice (c57/bl6 mice) were prepared as an experimental animal.
# Oxaliplatin (Sigma-Aldrich) dissolved in a 5% glucose solution at a concentration of 2 mg/mL was singly administered intraperitoneally to the experimental animal in an amount of 6 mg/kg. Significant pain was observed from about 3 days after intraperitoneal administration.
# The reaction that occurred by applying about 20 μL of acetone to the soles of both rear paws of the experimental animal was observed and recorded for about 15 s.
# Behaviors that are criteria for recording are an avoidance reaction, a behavior of shaking the soles of the paw, and a behavior of licking the soles of the paw. The evaluation was repeated a total of three times, and the average of the number of recorded behaviors was confirmed.
# Experimental animals induced with allodynia were selected through a pre-behavioral experiment, and the effects were confirmed at 2 h after oral administration of 10 mg/kg of cinnamic acid.
# [2] = system: oxaliplatin-induced cold allodynia; assay: Acetone drop test, oxaliplatin-induced cold allodynia, intraperitoneal administration; type: in vivo, Sprague Dawley (SD) rats
# Method: (§1) Cinnamic acid (trans-cinnamic acid, Wako Pure Chemical Industries, Osaka, Japan) and cinnamaldehyde (Wako Pure Chemical Industries, Osaka, Japan) were dissolved in 10% dimethyl sulfoxide (DMSO, Sigma) (adjusted to pH 7 with 2 M HCl and 5 M NaOH) and 1% Tween 20 (Sigma), respectively. The final volume of 10% DMSO and 1% Tween 20 used in the experiment was […] rat. Cinnamic acid and cinnamaldehyde (10 mg/kg, 20 mg/kg, and 40 mg/kg) (i.p.) at different concentrations were administered to rats with cold allodynia and mechanical allodynia.
# (§2) Seven-week-old male Sprague Dawley (SD) rats (180 g to 210 g, 95 rats total, Young Bio, Gyeonggi, Korea) were fed freely with feed and water in cages. The room temperature was maintained at 23±2° C. and a 12 h/12 h contrast cycle was maintained. All procedures described in the present disclosure were approved by the Animal Care and Use Committee of Kyunghee University (KHUASP[SE]-18-153) and followed the guidelines of the International Pain Research Association.
# (§3) In order to measure cold allodynia and mechanical allodynia, according to a previous method (Flatters, S J; Bennett, G J Ethosuximide reverses paclitaxel- and vincristine-induced painful peripheral neuropathy. Pain 2004, 109, 150-161), an acetone drop test and a von Frey filament test (up-down method, Linton Instrumentation, Norfolk, UK) were performed, respectively. The rats were trained for one week before the start of the experiment to adapt to the touch and the experimental procedure. The rats were stabilized for 30 min before testing in a clear plastic box (20 cm×20 cm×14 cm) with a wire mesh bottom, while not recognizing the injection of oxaliplatin and other drugs.
# Acetone was dripped 5 times on the right hind paw, and the total frequency of licking and shaking of the soles was measured as an average per time.
# (§4) For the mechanical allodynia test, paw withdrawal thresholds were measured in the right hind paw using a von Frey filament. Dixon's up-down method and Chaplan's calculation method were used, and a withdrawal threshold of 15 g was measured as a cut-off. In order to confirm the effects of cinnamaldehyde and cinnamic acid at different concentrations over time, the behavioral experiment was performed before injection of cinnamic acid and cinnamaldehyde (time point of 0 min) and at time points of 30 min, 60 min, and 120 min after injection.
# (§5) Oxaliplatin (Wako Pure Chemical Industries, Osaka, Japan) was dissolved in a 5% glucose solution at a concentration of 2 mg/mL and injected intraperitoneally at a dose of 6 mg/kg. The same volume of 5% glucose solution (i.p.) was administered to a control.
# (§6) All data are expressed as mean±S.E.M. (Standard error of the mean). The data in FIG. 4 was analyzed by a paired t-test (FIGS. 4A and 4B) or an unpaired t-test (FIG. 4C). The data in FIGS. 5 and 6 were expressed as mean±S.E.M. and analyzed by a Bonferroni post-test after one-way ANOVA to evaluate a statistical difference between groups. The data in FIG. 7A were analyzed using Dunnett's multiple comparisons test after two-way ANOVA. The 95% reliability was considered to be statistically significant.
# [3] = system: oxaliplatin-induced mechanical allodynia; assay: von Frey filament test (up-down method), oxaliplatin-induced mechanical allodynia, intraperitoneal administration; type: in vivo, Sprague Dawley (SD) rats
# Method: as §1, §2, §3, §4, §5, §6
# [4] = system: spinal WDR neurons; assay: In vivo extracellular recording of spinal WDR neurons after oxaliplatin; design: species or system Sprague Dawley (SD) rats; settings: 20 mg/kg i.p., day 4 after oxaliplatin, vs 10% DMSO control (FIGS. 7A to 7D)
# Method: as §2
# Oxaliplatin (Wako Pure Chemical Industries, Osaka, Japan) was dissolved in a 5% glucose solution at a concentration of 2 mg/mL and injected intraperitoneally at a dose of 6 mg/kg. The same volume of 5% glucose solution (i.p.) was administered to a control. […]
# All data are expressed as mean±S.E.M. (Standard error of the mean). The data in FIG. 4 was analyzed by a paired t-test (FIGS. 4A and 4B) or an unpaired t-test (FIG. 4C). The data in FIGS. 5 and 6 were expressed as mean±S.E.M. and analyzed by a Bonferroni post-test after one-way ANOVA to evaluate a statistical difference between groups. The data in FIG. 7A were analyzed using Dunnett's multiple comparisons test after two-way ANOVA. […]
structure (smiles),measurement,setting,value
O=C(O)/C=C/c1ccccc1 [cinnamic acid],time after administration up to which pain relief effect on cold allodynia was shown,[1]; low dose 10 mg/kg p.o.,up to 2 h
same,pain relief effect on cold allodynia compared to control (vehicle),"[1]; mice, 10 mg/kg oral, 2 h after administration (FIG. 1)",significant pain relief effect
same,time point at which the effect on cold allodynia disappeared,[2]; 10 mg/kg i.p. (FIG. 5A),120 min
same,pain relief effect on cold allodynia of 20 mg/kg relative to 40 mg/kg,"[2]; 20 mg/kg i.p. vs 40 mg/kg i.p. (control vs. 20 mg/kg p<0.001, 40 mg/kg p<0.05) (FIG. 5A)",slightly stronger
same,effect on oxaliplatin-induced cold allodynia,"[2]; all three doses 10, 20 and 40 mg/kg i.p., 30, 60, 120 min after injection (FIG. 5A, FIG. 6)",had effects on cold allodynia
same,optimal dose for alleviating cold allodynia and mechanical allodynia caused by oxaliplatin,"[2]; intraperitoneal administration, doses tested 10, 20, 40 mg/kg",20 mg/kg
same,effect on oxaliplatin-induced mechanical allodynia,"[3]; 10 mg/kg i.p., 60 min after injection (FIG. 5B)",remarkable effect
same,anti-allodynic effect on mechanical allodynia,"[3]; 20 mg/kg i.p., all time points, compared with 10 and 40 mg/kg (FIG. 5B)",strongest anti-allodynic effect among the three doses
same,effect on oxaliplatin-induced mechanical allodynia,"[3]; 10, 20 and 40 mg/kg i.p., 30, 60, 120 min after injection (FIG. 5B, FIG. 6)",significantly alleviated
same,"increased activity of WDR neurons after oxaliplatin injection (brush, press, pinch, acetone drop stimulations)",[4],significantly decreased

# Reference: patent US12285395B2, “Pharmaceutical composition for preventing or treating allodynia caused by anticancer agents” (UNIVERSITY-INDUSTRY COOPERATION GROUP OF KYUNG HEE …, priority 2018, dated 2025)
